One test addresses T1, GtfB (Streptococcus mutans, UniProt P08987).
T1 construct: secreted enzyme from culture supernatant of S. milleri KSB8 carrying gtfB of S. mutans GS-5; purified to near homogeneity by hydroxyapatite chromatography
The test can be described thus: incorporation of […]-glucose from labelled sucrose into glucans, scintillation counting. The test is classed as biochemical.

A further test concerns the target T2, GtfC (Streptococcus mutans, UniProt P13470).
T2 construct: secreted enzyme from culture supernatant of S. mutans WHB 410 (expresses gtfC only); purified to near homogeneity by hydroxyapatite chromatography
Described as above. The test is classed as biochemical.

Experimental findings from PMC4211880, “α-Mangostin Disrupts the Development of Streptococcus mutans Biofilms and Facilitates Its Mechanical Removal” (PLoS ONE, 2014) are described below.

T1 sequence (P08987 35-1476): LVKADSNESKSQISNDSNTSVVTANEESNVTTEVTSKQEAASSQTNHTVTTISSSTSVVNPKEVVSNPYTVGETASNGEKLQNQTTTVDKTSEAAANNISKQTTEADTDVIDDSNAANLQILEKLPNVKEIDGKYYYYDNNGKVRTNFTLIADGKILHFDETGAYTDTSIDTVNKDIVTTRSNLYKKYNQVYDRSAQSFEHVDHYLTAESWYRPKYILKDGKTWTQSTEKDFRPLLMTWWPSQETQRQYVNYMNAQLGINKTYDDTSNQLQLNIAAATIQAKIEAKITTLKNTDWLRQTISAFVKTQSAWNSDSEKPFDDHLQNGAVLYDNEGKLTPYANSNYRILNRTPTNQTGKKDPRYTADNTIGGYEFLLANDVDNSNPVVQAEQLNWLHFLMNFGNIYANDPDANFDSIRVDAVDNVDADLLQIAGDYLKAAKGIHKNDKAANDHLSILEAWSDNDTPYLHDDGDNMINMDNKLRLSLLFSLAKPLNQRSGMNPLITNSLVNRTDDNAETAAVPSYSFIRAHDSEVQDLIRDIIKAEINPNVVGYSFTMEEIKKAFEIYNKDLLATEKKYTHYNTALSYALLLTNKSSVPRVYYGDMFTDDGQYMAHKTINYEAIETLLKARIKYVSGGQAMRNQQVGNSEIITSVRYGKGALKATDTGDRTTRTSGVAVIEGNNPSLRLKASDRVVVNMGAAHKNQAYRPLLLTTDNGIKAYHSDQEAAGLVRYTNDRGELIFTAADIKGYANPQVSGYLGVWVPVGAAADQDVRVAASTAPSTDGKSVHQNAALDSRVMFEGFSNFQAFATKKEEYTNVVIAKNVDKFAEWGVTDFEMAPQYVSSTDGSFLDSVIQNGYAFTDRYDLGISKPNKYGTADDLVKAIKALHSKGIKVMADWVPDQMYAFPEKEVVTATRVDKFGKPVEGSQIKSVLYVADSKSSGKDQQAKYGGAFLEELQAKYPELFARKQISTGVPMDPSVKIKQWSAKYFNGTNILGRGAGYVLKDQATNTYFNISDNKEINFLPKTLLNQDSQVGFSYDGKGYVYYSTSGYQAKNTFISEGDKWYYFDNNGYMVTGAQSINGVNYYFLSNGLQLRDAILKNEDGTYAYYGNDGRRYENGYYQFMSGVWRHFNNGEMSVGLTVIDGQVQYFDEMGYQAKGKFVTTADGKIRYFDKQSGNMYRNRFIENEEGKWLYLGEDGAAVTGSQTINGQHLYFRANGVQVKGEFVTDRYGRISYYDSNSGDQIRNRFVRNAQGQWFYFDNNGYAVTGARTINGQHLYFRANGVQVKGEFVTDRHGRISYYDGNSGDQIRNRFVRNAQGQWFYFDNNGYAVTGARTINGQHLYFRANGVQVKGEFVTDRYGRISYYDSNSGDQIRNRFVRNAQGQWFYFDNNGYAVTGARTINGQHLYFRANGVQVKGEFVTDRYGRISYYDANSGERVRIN
T2 sequence (P13470 35-1455): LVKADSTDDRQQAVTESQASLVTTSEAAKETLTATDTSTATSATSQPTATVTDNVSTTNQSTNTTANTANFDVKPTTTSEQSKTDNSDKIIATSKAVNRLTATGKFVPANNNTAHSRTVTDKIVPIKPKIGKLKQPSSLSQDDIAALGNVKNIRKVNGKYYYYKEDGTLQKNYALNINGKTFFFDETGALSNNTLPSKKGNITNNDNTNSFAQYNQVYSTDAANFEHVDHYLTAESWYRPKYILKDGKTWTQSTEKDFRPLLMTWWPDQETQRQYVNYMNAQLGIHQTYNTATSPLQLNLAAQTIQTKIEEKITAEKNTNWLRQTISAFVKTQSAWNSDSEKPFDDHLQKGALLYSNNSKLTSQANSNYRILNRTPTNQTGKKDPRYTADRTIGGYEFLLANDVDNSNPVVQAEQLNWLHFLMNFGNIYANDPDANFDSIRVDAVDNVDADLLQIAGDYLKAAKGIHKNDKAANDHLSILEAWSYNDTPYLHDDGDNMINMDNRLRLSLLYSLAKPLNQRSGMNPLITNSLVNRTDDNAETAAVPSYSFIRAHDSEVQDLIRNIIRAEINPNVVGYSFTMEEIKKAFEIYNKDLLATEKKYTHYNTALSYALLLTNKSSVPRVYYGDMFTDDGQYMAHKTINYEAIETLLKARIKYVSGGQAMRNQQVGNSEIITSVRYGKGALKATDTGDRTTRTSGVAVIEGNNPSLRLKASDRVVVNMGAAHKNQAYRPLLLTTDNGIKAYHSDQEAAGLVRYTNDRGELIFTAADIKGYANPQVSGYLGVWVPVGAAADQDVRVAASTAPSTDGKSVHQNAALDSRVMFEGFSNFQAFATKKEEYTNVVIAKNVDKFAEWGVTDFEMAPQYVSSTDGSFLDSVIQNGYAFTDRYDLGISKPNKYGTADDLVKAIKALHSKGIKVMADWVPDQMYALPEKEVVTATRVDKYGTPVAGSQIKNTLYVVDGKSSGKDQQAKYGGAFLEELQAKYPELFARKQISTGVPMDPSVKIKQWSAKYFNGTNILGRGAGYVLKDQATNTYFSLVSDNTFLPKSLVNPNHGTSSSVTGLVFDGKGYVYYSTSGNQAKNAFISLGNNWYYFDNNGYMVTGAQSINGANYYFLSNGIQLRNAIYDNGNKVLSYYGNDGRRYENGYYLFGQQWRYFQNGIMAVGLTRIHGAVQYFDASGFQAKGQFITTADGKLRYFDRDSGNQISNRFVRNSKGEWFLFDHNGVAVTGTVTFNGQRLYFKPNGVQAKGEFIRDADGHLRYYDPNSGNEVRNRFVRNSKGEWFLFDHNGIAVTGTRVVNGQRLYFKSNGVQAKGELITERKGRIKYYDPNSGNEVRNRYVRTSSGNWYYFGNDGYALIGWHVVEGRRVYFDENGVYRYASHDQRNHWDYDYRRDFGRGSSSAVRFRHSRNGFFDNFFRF

With `COc1c(O)cc2oc3cc(O)c(CC=C(C)C)c(O)c3c(=O)c2c1CC=C(C)C` [αMG, α-mangostin], the inhibition at 150 µM on GtfB and against GtfC was above 70% in each case.
